Here are results for 12 compounds from PubChem BioAssay (NCI).

Test systems include SNB-78 CNS; M19-MEL melanoma; DLD-1 colon; LXFL 529 NSCLC; KM20L2 colon; DMS 273 small cell lung; DMS 114 small cell lung; RXF-631 renal; XF 498 CNS.
Common to all, as to test: NCI tumour cell line growth inhibition, 48 h

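Following 48 hours of exposure in 96-well plates, responses at five concentrations were used to interpolate endpoints linearly. GI50 is the concentration that inhibits growth by half. At the TGI there is no net growth.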

As to `CN1C(c2ccccc2)CC(O)CC1c1ccccc1` (stereo unspecified), the TGI with SNB-78 CNS, in the experiment with M19-MEL melanoma, with DLD-1 colon, in the experiment with LXFL 529 NSCLC, in the experiment on KM20L2 colon and in the experiment with DMS 273 small cell lung was more than 100 µM throughout. The compound also yielded a TGI in the experiment on DMS 114 small cell lung of more than 100 µM.
For the compound `CN(Cc1cnc2nc(N)nc(N)c2n1)c1ccc(C(=O)NC(CCC(=O)O)C(=O)O)c2ccccc12` (stereo unspecified), the GI50 is 0.0725 µM with M19-MEL melanoma, 0.00257 µM in the experiment with DLD-1 colon, 0.00489 µM in the experiment with KM20L2 colon and 0.000946 µM in the experiment with DMS 273 small cell lung.
As for `O=C(O)C1CCC(=O)N1C(=O)COc1cc(Cl)c(Cl)cc1Cl` (stereo unspecified), the TGI in the experiment on RXF-631 renal, with SNB-78 CNS, in the experiment on XF 498 CNS, with M19-MEL melanoma, in the experiment on LXFL 529 NSCLC and in the experiment with KM20L2 colon was more than 100 µM in each case. The TGI with DMS 273 small cell lung and in the experiment on DMS 114 small cell lung was more than 100 µM throughout.
With `Cc1cc(NC(=O)NC(=O)c2ccccc2NC(=O)CN(C)C)ccc1Oc1ncc(Br)cn1`, the TGI in the experiment with SNB-78 CNS was more than 100 µM; in the experiment on XF 498 CNS it was more than 100 µM; in the experiment on M19-MEL melanoma, more than 100 µM; with DLD-1 colon it was more than 100 µM; in the experiment with LXFL 529 NSCLC, more than 100 µM; in the experiment with KM20L2 colon, 34.7 µM. Further, the TGI with DMS 273 small cell lung was more than 100 µM; in the experiment on DMS 114 small cell lung, 35.7 µM.
Consider `COCOC1CCCC[C@@]1(OCCOCCO[C@@]1(c2ccccc2)CCCC[C@H]1OCOC)c1ccccc1` (stereo partly specified), for which the TGI in the experiment with SNB-78 CNS, in the experiment with XF 498 CNS, with M19-MEL melanoma, in the experiment with DLD-1 colon, in the experiment with LXFL 529 NSCLC and in the experiment on KM20L2 colon was more than 100 µM each time. The TGI with DMS 273 small cell lung and in the experiment with DMS 114 small cell lung was more than 100 µM throughout.
With `COc1ccc(/C(C=O)=C(\Cl)c2ccc(OC)c(OC)c2)cc1`, the TGI is more than 100 µM in the experiment with RXF-631 renal; more than 100 µM in the experiment with SNB-78 CNS; 50.2 µM with XF 498 CNS; more than 100 µM with M19-MEL melanoma; more than 100 µM with DLD-1 colon; more than 100 µM in the experiment with LXFL 529 NSCLC. The TGI in the experiment on KM20L2 colon, in the experiment on DMS 273 small cell lung and in the experiment with DMS 114 small cell lung was more than 100 µM in each case.
As to `COc1cccc(/C=N/[N-]C(N)=O)c1[O-].[Cu+2].[OH3+]`, the GI50 with XF 498 CNS is 15.9 µM. Besides, the TGI in the experiment with XF 498 CNS is 29.4 µM; with KM20L2 colon it was 20.6 µM.
`NC1CCC2(O)c3ccccc3C2C1` (stereo unspecified): the TGI in the experiment with SNB-78 CNS, in the experiment on XF 498 CNS, in the experiment with M19-MEL melanoma, in the experiment on LXFL 529 NSCLC, in the experiment with KM20L2 colon and in the experiment with DMS 273 small cell lung was more than 100 µM throughout. The same compound yielded a TGI with DMS 114 small cell lung of more than 100 µM.
As to `CCOC(=O)CNC(=O)c1[nH]cnc1/N=N/N(C)C`, the TGI with M19-MEL melanoma, in the experiment with DLD-1 colon, in the experiment on LXFL 529 NSCLC, in the experiment with DMS 273 small cell lung and in the experiment on DMS 114 small cell lung was more than 100 µM each time.
As to `COc1c(OC2OC(CO)C(O)C(O)C2O)cc2c(c1OC)-c1ccc(OC)c(=O)cc1C(NC(C)=O)CC2` (stereo unspecified), the TGI with RXF-631 renal, in the experiment on SNB-78 CNS, in the experiment on XF 498 CNS, in the experiment on M19-MEL melanoma, with DLD-1 colon and in the experiment with LXFL 529 NSCLC was more than 100 µM in each case. Also, the TGI in the experiment on KM20L2 colon, with DMS 273 small cell lung and with DMS 114 small cell lung was more than 100 µM throughout.
For `C/C(CCN(C)C)=N/O`, the TGI in the experiment with SNB-78 CNS was 51.7 µM; with XF 498 CNS it was 33.6 µM; in the experiment on M19-MEL melanoma it was 23 µM; with DLD-1 colon it was 15.8 µM; with LXFL 529 NSCLC, 4.72 µM; in the experiment on KM20L2 colon it was 22.8 µM. The TGI in the experiment on DMS 273 small cell lung was found to be 18.3 µM; with DMS 114 small cell lung, 20.7 µM.
With `CCOC(=O)C(Cc1ccc(N=NN(C)C)cc1)NC(=O)CC1c2ccccc2-c2ccccc21` (stereo unspecified), the TGI in the experiment with M19-MEL melanoma, with DLD-1 colon, in the experiment on LXFL 529 NSCLC, with DMS 273 small cell lung and in the experiment with DMS 114 small cell lung was more than 100 µM each time.
